Activity calls are given as the source filed them.
Columns and labels:
[1] = test system: HEK293; assay: cells; format: functional, cell-based; conditions: Homo sapiens
[2] = molecular target: T1, Nuclear receptor subfamily 0 group B member 1 (Homo sapiens, UniProt P51843); assay: Luminescence-based cell-based high throughput dose response assay for inhibitors of the orphan nuclear receptor subfamily 0, group B, member 1 (DAX1; NR0B1). [Related pubchem assays (depositor defined):AID504766, AID504790]; format: functional
T1 sequence (P51843 whole entry): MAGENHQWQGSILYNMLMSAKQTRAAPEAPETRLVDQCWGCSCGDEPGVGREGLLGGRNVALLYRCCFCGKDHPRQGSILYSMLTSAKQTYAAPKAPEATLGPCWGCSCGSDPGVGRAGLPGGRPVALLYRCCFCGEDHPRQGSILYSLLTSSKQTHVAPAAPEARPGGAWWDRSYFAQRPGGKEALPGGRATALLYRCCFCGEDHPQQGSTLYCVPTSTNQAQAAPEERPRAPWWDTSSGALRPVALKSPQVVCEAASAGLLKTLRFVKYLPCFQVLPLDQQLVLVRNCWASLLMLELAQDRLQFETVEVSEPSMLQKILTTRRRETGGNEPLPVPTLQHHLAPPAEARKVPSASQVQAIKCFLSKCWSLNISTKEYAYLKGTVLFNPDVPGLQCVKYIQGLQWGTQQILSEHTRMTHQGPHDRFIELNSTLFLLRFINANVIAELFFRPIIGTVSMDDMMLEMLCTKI

[3] = molecular target: Beta-2 adrenergic receptor (Homo sapiens, UniProt P07550); assay: ADRB2 activation measured by internalization – cell-based, FAP fluorogen, flow cytometry, cherry pick 1, dose response (AID 588763); format: functional
[4] = test system: Streptococcus; assay: GAS UMAA2166 growth inhibition – luminescence, BacTiterGlo, counter-screen for streptokinase expression inhibitor project, dose response (AID 1915); format: functional, organism-based;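 further: potency for reduction of bacterial viability or growth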
[5] = molecular target: T2, Replicative DNA helicase DnaB (Mycobacterium tuberculosis, UniProt P9WMR3); assay: DnaB intein splicing inhibitors, dose response, biochemical, cell-free fluorescence (AID 449749); format: functional
T2 sequence (P9WMR3 whole entry): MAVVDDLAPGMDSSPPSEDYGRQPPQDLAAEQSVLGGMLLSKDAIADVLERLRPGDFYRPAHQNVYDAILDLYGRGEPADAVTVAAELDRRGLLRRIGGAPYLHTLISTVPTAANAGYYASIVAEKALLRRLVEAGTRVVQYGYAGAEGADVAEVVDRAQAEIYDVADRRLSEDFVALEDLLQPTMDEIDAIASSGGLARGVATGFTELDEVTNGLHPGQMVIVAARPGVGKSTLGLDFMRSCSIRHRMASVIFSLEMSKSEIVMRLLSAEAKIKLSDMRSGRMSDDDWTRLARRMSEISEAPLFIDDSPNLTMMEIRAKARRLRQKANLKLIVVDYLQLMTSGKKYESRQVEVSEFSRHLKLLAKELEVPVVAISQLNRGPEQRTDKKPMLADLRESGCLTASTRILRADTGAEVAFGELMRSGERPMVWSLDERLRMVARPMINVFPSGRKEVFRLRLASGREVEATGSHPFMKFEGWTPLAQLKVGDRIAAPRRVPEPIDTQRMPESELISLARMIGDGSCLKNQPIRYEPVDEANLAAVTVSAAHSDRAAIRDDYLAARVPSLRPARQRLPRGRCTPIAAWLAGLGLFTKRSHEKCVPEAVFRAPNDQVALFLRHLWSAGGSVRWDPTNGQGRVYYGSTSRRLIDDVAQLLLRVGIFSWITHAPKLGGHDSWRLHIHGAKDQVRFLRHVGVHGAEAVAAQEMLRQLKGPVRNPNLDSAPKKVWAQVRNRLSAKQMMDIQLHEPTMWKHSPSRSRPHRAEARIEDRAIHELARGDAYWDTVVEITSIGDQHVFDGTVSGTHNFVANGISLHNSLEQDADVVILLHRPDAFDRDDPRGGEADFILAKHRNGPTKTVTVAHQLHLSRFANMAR

[6] = molecular target: T3, Protein RecA (Mycobacterium tuberculosis, UniProt P9WHJ3); assay: Fluorescence Cell-Free Homogeneous Dose Retest to Identify Inhibitors of RecA-Intein Splicing Activity. [Related pubchem assays (depositor defined):AID2097, AID2223, AID489010, AID492950]; format: functional
T3 sequence (P9WHJ3 whole entry): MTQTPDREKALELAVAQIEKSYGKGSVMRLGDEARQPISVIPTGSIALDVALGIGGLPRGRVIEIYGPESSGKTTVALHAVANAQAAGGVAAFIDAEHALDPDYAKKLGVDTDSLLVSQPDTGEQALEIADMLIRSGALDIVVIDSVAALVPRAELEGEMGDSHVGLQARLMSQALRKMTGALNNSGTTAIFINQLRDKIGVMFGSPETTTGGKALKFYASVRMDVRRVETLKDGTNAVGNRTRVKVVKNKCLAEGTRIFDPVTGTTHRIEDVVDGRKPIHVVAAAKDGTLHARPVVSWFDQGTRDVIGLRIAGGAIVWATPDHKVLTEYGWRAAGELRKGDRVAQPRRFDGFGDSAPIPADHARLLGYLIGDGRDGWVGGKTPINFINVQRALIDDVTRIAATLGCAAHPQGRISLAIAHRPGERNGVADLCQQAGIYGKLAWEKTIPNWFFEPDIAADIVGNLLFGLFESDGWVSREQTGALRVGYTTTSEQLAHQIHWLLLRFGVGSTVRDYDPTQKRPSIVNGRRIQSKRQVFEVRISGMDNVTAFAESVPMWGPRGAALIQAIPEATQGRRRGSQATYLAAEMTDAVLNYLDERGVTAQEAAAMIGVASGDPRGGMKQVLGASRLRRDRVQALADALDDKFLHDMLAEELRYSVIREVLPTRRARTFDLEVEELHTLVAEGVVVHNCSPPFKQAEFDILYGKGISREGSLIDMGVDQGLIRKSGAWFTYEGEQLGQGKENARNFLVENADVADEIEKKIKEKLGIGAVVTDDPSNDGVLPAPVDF

[7] = molecular target: Apoptotic protease-activating factor 1 (Homo sapiens, UniProt O14727); format: functional
[8] = molecular target: T4, Streptokinase A (Streptococcus pyogenes serotype M1, UniProt P10520); assay: viability-normalized secreted streptokinase activity reduction – plasminogen activation absorbance, OD405, dose response (AID 1914); format: functional, Streptococcus pyogenes M1 GAS;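 further: secreted streptokinase activity via plasminogen activation per viability signal from cell pellet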
T4 sequence (P10520 whole entry): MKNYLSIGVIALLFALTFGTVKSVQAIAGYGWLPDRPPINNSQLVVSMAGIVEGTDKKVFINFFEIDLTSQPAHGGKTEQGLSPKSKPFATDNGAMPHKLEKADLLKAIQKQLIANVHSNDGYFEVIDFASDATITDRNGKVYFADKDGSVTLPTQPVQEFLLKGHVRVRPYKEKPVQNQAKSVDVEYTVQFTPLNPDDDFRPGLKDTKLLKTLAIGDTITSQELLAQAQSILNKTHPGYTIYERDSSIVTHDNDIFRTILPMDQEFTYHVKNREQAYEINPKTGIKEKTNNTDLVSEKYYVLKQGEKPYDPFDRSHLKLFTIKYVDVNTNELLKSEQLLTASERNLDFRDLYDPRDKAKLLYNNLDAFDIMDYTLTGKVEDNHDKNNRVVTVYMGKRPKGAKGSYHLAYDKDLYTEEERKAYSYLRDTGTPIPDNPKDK

[9] = molecular target: T5, Mitochondrial peptide methionine sulfoxide reductase (Bos taurus, UniProt P54149); format: functional;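 further: absorbance read-out, biochemical high-throughput dose-response screen for MsrA inhibitors, confirmatory; recombinant bovine MsrA coupled to E. coli TrxB with NADPH and selenocystamine; potency is for inhibitors of MsrA activity on DMSO substrate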
T5 sequence (P54149 whole entry): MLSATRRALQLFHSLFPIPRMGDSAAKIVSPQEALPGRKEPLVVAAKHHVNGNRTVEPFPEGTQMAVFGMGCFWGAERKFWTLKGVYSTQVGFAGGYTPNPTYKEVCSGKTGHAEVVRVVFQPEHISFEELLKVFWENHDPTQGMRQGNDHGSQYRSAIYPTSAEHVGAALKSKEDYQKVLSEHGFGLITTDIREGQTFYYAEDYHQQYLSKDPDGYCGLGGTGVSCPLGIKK

[10] = test system: Streptococcus sp. 'group A'; assay: Streptococcus pyogenes SK(-)GAS viability under kanamycin – luminescence, BacTiterGlo, confirmation, counter-screen for streptokinase expression inhibitor project, dose response (AID 1900); format: functional, organism-based
[11] = test system: Vero; assay: viability of Vero cells under compound – cytotoxicity control for flavivirus capping enzyme inhibitors (AID 588742); format: functional; conditions: Chlorocebus sabaeus

Apoptotic protease-activating factor 1, sequence (O14727 whole entry): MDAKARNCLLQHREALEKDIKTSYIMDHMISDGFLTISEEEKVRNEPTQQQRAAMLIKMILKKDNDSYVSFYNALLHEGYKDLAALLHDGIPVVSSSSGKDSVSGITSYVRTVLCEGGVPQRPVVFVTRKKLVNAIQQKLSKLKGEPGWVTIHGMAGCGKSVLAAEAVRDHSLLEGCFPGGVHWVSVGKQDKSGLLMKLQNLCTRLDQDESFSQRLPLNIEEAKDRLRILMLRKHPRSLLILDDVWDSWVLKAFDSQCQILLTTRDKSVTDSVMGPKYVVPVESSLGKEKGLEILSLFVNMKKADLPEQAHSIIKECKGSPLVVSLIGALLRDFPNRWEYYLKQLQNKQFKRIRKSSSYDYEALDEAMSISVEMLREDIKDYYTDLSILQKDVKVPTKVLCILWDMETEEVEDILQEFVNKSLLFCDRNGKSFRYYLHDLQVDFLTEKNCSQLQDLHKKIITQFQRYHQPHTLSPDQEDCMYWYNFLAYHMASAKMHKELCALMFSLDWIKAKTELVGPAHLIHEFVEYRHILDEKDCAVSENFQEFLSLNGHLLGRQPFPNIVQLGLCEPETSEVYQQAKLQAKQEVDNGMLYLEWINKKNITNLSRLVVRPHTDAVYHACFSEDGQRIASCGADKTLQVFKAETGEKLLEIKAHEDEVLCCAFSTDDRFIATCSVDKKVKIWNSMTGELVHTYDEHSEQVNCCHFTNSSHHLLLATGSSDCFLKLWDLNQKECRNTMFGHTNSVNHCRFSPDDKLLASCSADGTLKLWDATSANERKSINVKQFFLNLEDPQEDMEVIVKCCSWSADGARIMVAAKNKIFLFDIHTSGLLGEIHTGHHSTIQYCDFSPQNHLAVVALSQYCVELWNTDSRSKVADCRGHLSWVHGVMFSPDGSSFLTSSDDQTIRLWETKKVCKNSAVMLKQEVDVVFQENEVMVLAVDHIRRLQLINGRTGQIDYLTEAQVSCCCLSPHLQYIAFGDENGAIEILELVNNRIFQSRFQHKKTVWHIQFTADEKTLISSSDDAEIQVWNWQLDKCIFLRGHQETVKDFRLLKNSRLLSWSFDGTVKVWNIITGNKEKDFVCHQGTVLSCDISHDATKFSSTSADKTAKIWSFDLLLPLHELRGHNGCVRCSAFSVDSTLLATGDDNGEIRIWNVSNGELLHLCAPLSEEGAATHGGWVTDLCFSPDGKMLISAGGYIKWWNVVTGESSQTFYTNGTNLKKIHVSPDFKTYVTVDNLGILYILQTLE
Beta-2 adrenergic receptor, sequence (P07550 whole entry): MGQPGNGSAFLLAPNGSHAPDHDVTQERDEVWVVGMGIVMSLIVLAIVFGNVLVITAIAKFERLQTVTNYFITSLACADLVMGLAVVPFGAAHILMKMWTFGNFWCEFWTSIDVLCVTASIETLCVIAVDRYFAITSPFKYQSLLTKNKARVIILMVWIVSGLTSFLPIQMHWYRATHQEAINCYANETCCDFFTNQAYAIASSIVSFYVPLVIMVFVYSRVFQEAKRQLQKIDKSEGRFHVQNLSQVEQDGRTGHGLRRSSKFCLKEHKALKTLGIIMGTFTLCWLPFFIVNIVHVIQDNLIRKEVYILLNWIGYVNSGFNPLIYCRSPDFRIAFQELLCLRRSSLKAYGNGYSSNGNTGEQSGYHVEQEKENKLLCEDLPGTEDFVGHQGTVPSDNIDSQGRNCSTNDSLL

With `C(=N\Nc1nc2ccccc2[nH]1)/c1ccc2c(c1)OCO2` the IC50 [1] was > 67.5 µM (inactive) and the IC50 [2] was > 67.5 µM (inactive).

In the case of `Cn1c(CNc2nc(-c3ccccc3)cs2)nnc1SCC(=O)N1CCc2ccccc21`, the EC50 [3] is reported as 0.666 µM (active).

With `Cc1[nH]c2ccccc2c1C(C#N)(C#N)C1C(=O)c2ccccc2C1=O` the EC50 [4] was > 150 µM (not active), the AC50 [5] was > 120 µM (inactive) and the EC50 [6] was 0.297 µM (active). The IC50 [7] was > 100 µM (inactive), the EC50 [8] was > 150 µM (not active) and the IC50 [9] was 12.1 µM (inactive). For the same compound, the EC50 [10] was 8.49 µM (active) and the CC50 [11] was > 40 µM (active).

With `O=C(NC1=NCCS1)c1cccc(Br)c1` the IC50 [1] was > 67.5 µM (inactive) and the IC50 [2] was > 67.5 µM (inactive).

Source: ChEMBL document CHEMBL1201862, “PubChem BioAssay data set” (2004)
